From patent US11034699B2, “Ethynyl derivatives” (Hoffmann-La Roche Inc., priority 2015, dated 2021)

Assays:
[1] = test system: mice; settings: mice treated with MPTP; cited from earlier work
[2] = target: human mGlu4 receptor (Homo sapiens (Human), UniProt Q14833); assay: Ca2+ mobilization in vitro assay on recombinant human mGlu4 expressed in HEK293 cells (PAM); format: cell-based; settings: for Emax: HEK293, maximal response in % of maximal stimulatory effect of saturating L-AP4, read-out: Eff. (%); for EC50: HEK293 cells, human mGlu4, L-AP4 at EC20
human mGlu4 receptor, sequence (Q14833 33-912): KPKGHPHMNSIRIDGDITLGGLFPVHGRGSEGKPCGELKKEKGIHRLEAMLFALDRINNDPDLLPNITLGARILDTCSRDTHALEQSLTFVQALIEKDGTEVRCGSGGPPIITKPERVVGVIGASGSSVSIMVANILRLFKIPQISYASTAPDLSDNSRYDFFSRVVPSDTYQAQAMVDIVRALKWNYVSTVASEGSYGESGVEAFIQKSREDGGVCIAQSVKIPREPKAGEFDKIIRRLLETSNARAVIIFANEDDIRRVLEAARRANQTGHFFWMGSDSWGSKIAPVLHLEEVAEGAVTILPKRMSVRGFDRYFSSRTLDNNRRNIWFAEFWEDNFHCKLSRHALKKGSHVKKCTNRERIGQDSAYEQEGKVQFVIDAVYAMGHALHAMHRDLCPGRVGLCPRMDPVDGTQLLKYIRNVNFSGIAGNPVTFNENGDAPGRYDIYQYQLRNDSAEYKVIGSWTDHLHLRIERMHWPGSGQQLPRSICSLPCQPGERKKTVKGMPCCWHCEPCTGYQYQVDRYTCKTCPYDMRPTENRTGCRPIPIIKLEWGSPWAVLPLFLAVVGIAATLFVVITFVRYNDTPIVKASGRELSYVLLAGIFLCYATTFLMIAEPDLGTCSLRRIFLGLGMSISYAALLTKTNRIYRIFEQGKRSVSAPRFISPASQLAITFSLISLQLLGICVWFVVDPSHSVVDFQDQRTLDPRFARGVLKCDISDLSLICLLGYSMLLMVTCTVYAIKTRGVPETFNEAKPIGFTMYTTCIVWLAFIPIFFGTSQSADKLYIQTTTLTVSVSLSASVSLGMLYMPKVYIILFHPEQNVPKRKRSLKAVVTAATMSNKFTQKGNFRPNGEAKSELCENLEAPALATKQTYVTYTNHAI
Description: Determination of EC50 Values Using a Ca2+ Mobilization In Vitro Assay on Recombinant Human mGlu4 Expressed in HEK293 Cells:
A monoclonal HEK-293 cell line stably transfected with a cDNA encoding for the human mGlu4 receptor was generated; for the work with mGlu4 Positive Allosteric Modulators (PAMs), a cell line with low receptor expression levels and low constitutive receptor activity was selected to allow the differentiation of agonistic versus PAM activity. Cells were cultured according to standard protocols (Freshney, 2000) in Dulbecco's Modified Eagle Medium with high glucose supplemented with 1 mM glutamine, 10% (vol/vol) heat-inactivated bovine calf serum, Penicillin/Streptomycin, 50 μg/ml hygromycin and 15 μg/ml blasticidin (all cell culture reagents and antibiotics from Invitrogen, Basel, Switzerland).
About 24 hrs before an experiment, 5×10^4 cells/well were seeded in poly-D-lysine coated, black/clear-bottomed 96-well plates. The cells were loaded with 2.5 μM Fluo-4AM in loading buffer (1×HBSS, 20 mM HEPES) for 1 hr at 37° C. and washed five times with loading buffer. The cells were transferred into a Functional Drug Screening System 7000 (Hamamatsu, Paris, France), and 11 half logarithmic serial dilutions of test compound at 37° C. were added and the cells were incubated for 10-30 min. with on-line recording of fluorescence. Following this pre-incubation step, the agonist (2S)-2-amino-4-phosphonobutanoic acid (L-AP4) was added to the cells at a concentration corresponding to EC20 with on-line recording of fluorescence; in order to account for day-to-day variations in the responsiveness of cells, the EC20 of L-AP4 was determined immediately ahead of each experiment by recording of a full dose-response curve of L-AP4.
Responses were measured as peak increase in fluorescence minus basal (i.e. fluorescence without addition of L-AP4), normalized to the maximal stimulatory effect obtained with saturating concentrations of L-AP4. Graphs were plotted with the % maximal stimulatory using XLfit, a curve fitting program that iteratively plots the data using Levenburg Marquardt algorithm. The single site competition analysis equation used was y=A+((B−A)/(1+((x/C)D))), where y is the % maximal stimulatory effect, A is the minimum y, B is the maximum y, C is the EC50, x is the log 10 of the concentration of the competing compound and D is the slope of the curve (the Hill Coefficient). From these curves the EC50 (drug concentration at which 50% of the maximal receptor activation was achieved), the Hill coefficient as well as the maximal response in % of the maximal stimulatory effect obtained with saturating concentrations of L-AP4 were calculated (see FIG. 1).
A depression of the signal observed after addition of the EC20 concentration of L-AP4 was indicative of an inhibitory activity of the test compound.

[3] = test system: rats; settings: cited from earlier work
[4] = test system: mice; settings: cited from earlier work
[5] = test system: mice; settings: cited from earlier work; remark: listed apart in the source
[6] = test system: rodent; settings: 6-OHDA rodent model of PD; cited from earlier work

Structure (SMILES) | Emax [2] | EC50 [2] | other results
O=C(Nc1ccccc1)C12CC1/C(=N\O)c1ccccc1O2 (single isomer, unassigned; (-)) [(−)-PHCCC] |  |  | nigrostriatal degeneration [1]: reduced nigrostriatal degeneration
CN1C(=O)N(c2c(F)cc(C#Cc3ccccc3)cc2F)C(=O)C[C@]12CCCc1cnccc12 [Example 6, (5S)-3′-[2,6-Difluoro-4-(2-phenylethynyl)phenyl]-1′-methyl-spiro[7,8-dihydro-6H-isoquinoline-5,6′-hexahydropyrimidine]-2′,4′-dione] | 115% | 65 nM | 
CN1C(=O)N(c2c(F)cc(C#Cc3ccccc3)cc2F)C(=O)C[C@]12CCCCc1nn(C)cc12 [Example 17, (4S)-3′-[2,6-Difluoro-4-(2-phenylethynyl)phenyl]-1′,2-dimethyl-spiro[5,6,7,8-tetrahydrocyclohepta[c]pyrazole-4,6′-hexahydropyrimidine]-2′,4′-dione] | 131% | 39 nM | 
CN1C(=O)N(c2c(F)cc(C#Cc3ccccc3)cc2F)C(=O)C[C@]12CCCc1c2cnn1C [Example 14, (4S)-3′-[2,6-Difluoro-4-(2-phenylethynyl)phenyl]-1,1′-dimethyl-spiro[6,7-dihydro-5H-indazole-4,6′-hexahydropyrimidine]-2′,4′-dione] | 151% | 75 nM | 
Cc1ccnc(Nc2nc(-c3cn[nH]c3)c(C)s2)n1 [ADX88178] |  |  | profile in the rat EPM test ([3]; rat, after oral dosing): anxiolytic-like profile; activity in EPM ([3]; rats): active; activity in marble burying test [4]: active; activity in EPM [5]: active
CN1C(=O)N(c2c(F)cc(C#Cc3cccnc3)cc2F)C(=O)C[C@]12CCc1ccccc12 [Example 3, (6S)-3-[2,6-Difluoro-4-[2-(3-pyridyl)ethynyl]phenyl]-1-methyl-spiro[hexahydropyrimidine-6,1′-indane]-2,4-dione] | 94% | 61 nM | 
CN1C(=O)N(c2c(F)cc(C#Cc3ccccc3)cc2F)C(=O)C[C@]12CCCCc1c2cnn1C [Example 16, (4S)-3′-[2,6-Difluoro-4-(2-phenylethynyl)phenyl]-1,1′-dimethyl-spiro[5,6,7,8-tetrahydrocyclohepta[c]pyrazole-4,6′-hexahydropyrimidine]-2′,4′-dione] | 137% | 34 nM | 
CN1C(=O)N(c2c(F)cc(C#Cc3ccccc3)cc2F)C(=O)C[C@]12CCCc1nn(C)cc12 [Example 13, (4S)-3′-[2,6-Difluoro-4-(2-phenylethynyl)phenyl]-1′,2-dimethyl-spiro[6,7-dihydro-5H-indazole-4,6′-hexahydropyrimidine]-2′,4′-dione] | 165% | 39 nM | 
CN1C(=O)N(c2c(F)cc(C#Cc3ccccc3)cc2F)C(=O)C[C@]12CCCc1ccncc12 [Example 1, (8S)-3′-[2,6-Difluoro-4-(2-phenylethynyl)phenyl]-1′-methyl-spiro[6,7-dihydro-5H-isoquinoline-8,6′-hexahydropyrimidine]-2′,4′-dione] | 101% | 58 nM | 
N[C@@H](CCP(=O)(O)O)C(=O)O [L-AP4, (2S)-2-amino-4-phosphonobutanoic acid] |  |  | neuroprotective effects [6]: neuroprotective effects
CN1C(=O)N(c2c(F)cc(C#Cc3ccccc3)cc2F)C(=O)C[C@]12CCCc1ncccc12 [Example 5, (5S)-3′-[2,6-Difluoro-4-(2-phenylethynyl)phenyl]-1′-methyl-spiro[7,8-dihydro-6H-quinoline-5,6′-hexahydropyrimidine]-2′,4′-dione] | 121% | 76 nM | 
CN1C(=O)N(c2c(F)cc(C#Cc3ccccc3)cc2F)C(=O)C[C@]12CCCc1[nH]ncc12 [Example 12, (4S)-3′-[2,6-Difluoro-4-(2-phenylethynyl)phenyl]-1′-methyl-spiro[1,5,6,7-tetrahydroindazole-4,6′-hexahydropyrimidine]-2′,4′-dione] | 152% | 51 nM | 
CN1C(=O)N(c2c(F)cc(C#Cc3cccnc3)cc2F)C(=O)C[C@]12COCc1ccccc12 [Example 10, (6S)-3-[2,6-Difluoro-4-[2-(3-pyridyl)ethynyl]phenyl]-1-methyl-spiro[hexahydropyrimidine-6,4′-isochromane]-2,4-dione] | 118% | 43 nM | 
CN1C(=O)N(c2c(F)cc(C#Cc3ccccc3)cc2F)C(=O)C[C@]12CCc1ncccc12 [Example 4, (5S)-3′-[2,6-Difluoro-4-(2-phenylethynyl)phenyl]-1′-methyl-spiro[6,7-dihydrocyclopenta[b]pyridine-5,6′-hexahydropyrimidine]-2′,4′-dione] | 115% | 94 nM | 
CN1C(=O)N(c2c(F)cc(C#Cc3cccnc3)cc2F)C(=O)C[C@]12CCOc1ccccc12 [Example 8, (4S)-3′-[2,6-Difluoro-4-[2-(3-pyridyl)ethynyl]phenyl]-1′-methyl-spiro[chromane-4,6′-hexahydropyrimidine]-2′,4′-dione] | 145% | 88 nM | 
CN1C(=O)N(c2c(F)cc(C#Cc3cccnc3)cc2F)C(=O)C[C@]12CCCc1ccccc12 [Example 2, (6S)-3-[2,6-Difluoro-4-[2-(3-pyridyl)ethynyl]phenyl]-1-methyl-spiro[hexahydropyrimidine-6,1′-tetralin]-2,4-dione] | 101% | 52 nM | 
CCN1C(=O)N(c2c(F)cc(C#Cc3ccccc3)cc2F)C(=O)C[C@]12CCCc1ccncc12 [Example 11, (8S)-3′-[2,6-Difluoro-4-(2-phenylethynyl)phenyl]-1′-ethyl-spiro[6,7-dihydro-5H-isoquinoline-8,6′-hexahydropyrimidine]-2′,4′-dione] | 130% | 114 nM | 
CN1C(=O)N(c2c(F)cc(C#Cc3ccccc3)cc2F)C(=O)C[C@]12CCCc1ncncc12 [Example 7, (5S)-3′-[2,6-Difluoro-4-(2-phenylethynyl)phenyl]-1′-methyl-spiro[7,8-dihydro-6H-quinazoline-5,6′-hexahydropyrimidine]-2′,4′-dione] | 115% | 65 nM | 
CN1C(=O)N(c2c(F)cc(C#Cc3ccccc3)cc2F)C(=O)C[C@]12CCOc1ncccc12 [Example 9, (4S)-3′-[2,6-Difluoro-4-(2-phenylethynyl)phenyl]-1′-methyl-spiro[2,3-dihydropyrano[2,3-b]pyridine-4,6′-hexahydropyrimidine]-2′,4′-dione] | 124% | 51 nM | 
CN1C(=O)N(c2c(F)cc(C#Cc3ccccc3)cc2F)C(=O)C[C@]12CCCCc1[nH]ncc12 [Example 15, (4S)-3′-[2,6-Difluoro-4-(2-phenylethynyl)phenyl]-1′-methyl-spiro[5,6,7,8-tetrahydro-1H-cyclohepta[c]pyrazole-4,6′-hexahydropyrimidine]-2′,4′-dione] | 133% | 54 nM | 
